≈ marks a conversion by molar mass, not a printed value. Blank lines part the entries; values can stand above or below the compound they belong to.
What was measured:
[1] = Measurement of solubility (Experimental Example 3); format: physicochemical; conditions: Phosphate buffer, room temperature, shaken 120 minutes
Excerpt: The improved solubility of compound A by amorphization was observed.

[2] = Measurement of related substances by HPLC after storage in glass bottles (Experimental Example 4); format: physicochemical
Protocol: The solid dispersion of Example 1 and the amorphous form of compound A of Example 2 were put into glass bottles, and the bottles were allowed to stand under the predetermined conditions, after being sealed or without being sealed, and the amount of each related substance of compound A was measured by an HPLC method.
The measurement of related substances was carried out in accordance with the following conditions (the following tests for related substances were carried out in a similar fashion.): • As a HPLC column, Unison UK-Phenyl (particle size=3 μm, 4.6 mm (inner diameter)×25 cm, manufactured by Imtakt), or its equivalent, was used, and maintained at 40° C. • As mobile phase A, a mixed solution (4:1) of a perchlorate solution (pH 4.0) and methanol was used. • As mobile phase B, acetonitrile was used. • Sample solutions were prepared by diluting samples with a mixed solution of mobile phase A/mobile phase B (7:3) so that the concentration of compound A became 250 μg/mL. • Related substances were measured using an ultraviolet absorption spectrophotometer (wavelength: 225 nm), in accordance with the gradient program shown in Table 3 below, and at a flow rate in which the retention time of compound A was about 26 minutes. The percentage of the peak area of each related substance was calculated, as a percentage with respect to the total peak area of compound A and its related substances.

[3] = Powder X-ray diffraction test, crystallinity before and after storage (Experimental Example 5); format: physicochemical; conditions: at least 70° C. for 9 days, or 40° C., 75% RH for 1 month; FIG. 2
Protocol: The amorphous form of compound A of Example 2 was put into glass bottles, and the bottles were sealed and allowed to stand under the predetermined conditions, and the crystallinity before and after storage was evaluated using a powder X-ray diffraction method. In “40° C., 75% RH for 1 month (opened)”, the storage was carried out under the conditions where the bottle was not sealed.

[4] = Oral absorption test in dog (Experimental Example 6); format: in vivo; conditions: 50 mg of compound A
Protocol: The dogs were made to fast from the evening on the day before the administration (before more than 16 hours from the scheduled administration time) to the final blood collection on the day of the administration (24 hours after the administration). After the end of the final blood collection, food was given in accordance with the feeding amount of the breeding facility (the fasting period was from 24 hours or more to less than 48 hours). Water was not given during a time period from 30 minutes before the administration to 2 hours after the administration, and then, it was free to drink water.

[5] = physchem; conditions: thermodynamic from solid
[6] = glass bottle not sealed (*), 40° C., 75% RH for 1 month
[7] = glass bottle, sealed, 25° C., 60% RH for 1 month
[8] = glass bottle, sealed, 40° C., 75% RH for 1 month
[9] = glass bottle, sealed, 70° C. for 9 days

Solubility ([1]; pH 6.8, 0.10% Sodium lauryl sulfate, listed as Ex. 2): 326 µg/mL (≈ 599 µM)
Solubility ([1]; pH 6.8, listed as Ex. 2): 75 µg/mL (≈ 138 µM)
Maximum related substance ([2]; At the beginning of storage): 0.80%
Total amount of related substances ([2]; At the beginning of storage): 0.88%
significant increase in related substances ([2]; at least 70° C. for 9 days, 40° C., 75% RH for 1 month, or 25° C., 60% RH for 1 month): not observed
Maximum related substance [2, 6]: 0.77%
Maximum related substance, increased amount from the beginning of the storage [2, 6]: (−0.03) %
Total amount of related substances [2, 6]: 0.98%
Total amount of related substances, increased amount from the beginning of the storage [2, 6]: (0.10) %
Maximum related substance [2, 7]: 0.79%
Maximum related substance, increased amount from the beginning of the storage [2, 7]: (−0.01) %
Total amount of related substances [2, 7]: 0.99%
Total amount of related substances, increased amount from the beginning of the storage [2, 7]: (0.11) %
Maximum related substance [2, 8]: 0.79%
Maximum related substance, increased amount from the beginning of the storage [2, 8]: (−0.01) %
Total amount of related substances [2, 8]: 0.99%
Total amount of related substances, increased amount from the beginning of the storage [2, 8]: (0.11) %
Maximum related substance [2, 9]: 0.82%
Maximum related substance, increased amount from the beginning of the storage [2, 9]: (0.02) %
Total amount of related substances [2, 9]: 0.85%
Total amount of related substances, increased amount from the beginning of the storage [2, 9]: (−0.03) %
crystallinity after storage (powder X-ray diffraction) [3]: maintained the amorphous state alone
AUC0-24 h ratio to the suspension of Example 2 [4]: 1.00
Cmax ratio to the suspension of Example 2 [4]: 1.00
oral absorbability [4]: good oral absorbability
Cmax ([4]; plasma, suspension in 0.5% methylcellulose): 793 ± 165 ng/mL
AUC(0-t) ([4]; plasma, suspension in 0.5% methylcellulose, read-out: AUC0-24 hr): 4920 ± 1220 ng·h/mL
Compound: C[C@@H](O)C(=N)NS(=O)(=O)c1cc(C(=O)C(C(=O)c2cc(F)ccc2F)=C2Nc3ccccc3N2)ccc1F [Example 2, (2R)—N-({5-[3-(2,5-difluorophenyl)-2-(1,3-dihydro-2H-benzimidazole-2-ylidene)-3-oxopropanoyl]-2-fluorophenyl}sulfonyl)-2-hydroxypropane imide amide]

Solubility ([1]; pH 6.8, 0.10% Sodium lauryl sulfate, listed as Compound A in crystalline state): 69 µg/mL (≈ 127 µM)
Solubility ([1]; pH 6.8, listed as Compound A in crystalline state): 15 µg/mL (≈ 27.5 µM)
Solubility ([5]; pH 1.2, simulated gastric fluid): ~9.9 µg/mL (≈ 18.2 µM)
Solubility ([5]; pH 6.8, aqueous buffer): ~9.8 µg/mL (≈ 18 µM)
Compound: C[C@@H](O)C(=N)NS(=O)(=O)c1cc(C(=O)C(C(=O)c2cc(F)ccc2F)=C2Nc3ccccc3N2)ccc1F [Compound A, (2R)—N-({5-[3-(2,5-difluorophenyl)-2-(1,3-dihydro-2H-benzimidazole-2-ylidene)-3-oxopropanoyl]-2-fluorophenyl}sulfonyl)-2-hydroxypropane imide amide]

Reference: patent US9775832B2, “Pharmaceutical composition for oral administration” (ASTELLAS PHARMA INC., priority 2014, dated 2017)
